# Measured values taken from US20250288704A1, “CXCR4-LIGANDS FOR DIAGNOSTIC AND THERAPEUTIC USE AND PRECURSORS THEREOF” (priority 2021, published 2025).
# Where two headings read alike, the source gives them in different places. Positions of bridges follow the written chain, without caps; N, C: chain ends. Non-standard residues stand in square brackets, D forms with d. Residues, ends and D or L forms follow the SMILES beside them. Groups on a side chain read outwards from the residue. Chains are numbered I, II in the order given. *: point of attachment. DOTA = O=C(O)CN1CCN(CC(=O)O)CCN(CC(=O)*)CCN(CC(=O)O)CC1; dTyr(3-I) = N[C@H](Cc1ccc(O)c(I)c1)C(=O)O; 2Nal = N[C@@H](Cc1ccc2ccccc2c1)C(=O)O; dCit = NC(=O)NCCC[C@@H](N)C(=O)O; dNMeOrn = CN[C@H](CCCN)C(=O)O; 4Amb = NCc1ccc(C(=O)O)cc1; Mercaptoacetyl = O=C(CS)*; 4Abz = Nc1ccc(C(=O)O)cc1; dDap = NC[C@@H](N)C(=O)O
# Experiments:
# [1] = biological target: CXCR4 (Homo sapiens, UniProt P61073); assay: Determination of IC50: competition with 125I-Fc-131 on CXCR4-positive Jurkat cells; assay type: binding; design: CXCR4-positive Jurkat T lymphocyte cells were grown in Gibco's RPMI 1640 GlutaMAX medium; endogenous in cells; host or cells: Jurkat T lymphocyte cells (whole cells in suspension, 400.000 per tube);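 note: test compound at 10^−5 to 10^−11 M competed for 2 h at 8 °C with the radioligand on 400,000 cells per well, bound versus free activity measured by γ-counting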
# [2] = Octanol/PBS partition coefficient (logD7.4); assay type: physicochemical; settings: n-octanol/PBS pH 7.4, radiolabeled compound
# Description: The tubes were vortexed at maximum speed for 3 min to ensure equilibrium before centrifugation at 15.000×g for 5 min on a Biofuge 15 from Heraeus Holding GmbH (Osterode, Germany). An aliquot of 100 μL of each fraction was measured in the γ-counter and the log D7.4 calculated as follows: […]
# [3] = system: CXCR4-expressing Chem_1 cells; assay: Determination of internalization, dual tracer with 125I-Fc-131; assay type: cell-based; settings: for Cell-bound [%] / Internalized [%]: of total cellular activity; for Internalization [% Fc-131] 2 h: 177Lu-labeled
# Description: CXCR4-expressing Chem_1 cells were grown in DMEM-F12 medium supplemented with 10 vol % FBS, 1 vol % NEA, 1 vol % PenStrep and 1 vol % HEPES (1.00 M). Cells were maintained in a 5% CO2 atmosphere at 37° C.
# For in vitro experiments, cells were harvested by removal of the medium and incubation of the cells with trypsine/EDTA (0.05%/0.02%; w/v) for 30 in at 37° C.
# Each well (n=3 for every time point) was either treated with 25 μL DMEM-F12 (+5 wt % BSA) or 25 μL of an AMD3100 stock (1 mM in H2O) for blockage of the receptors.
# The experiment was stopped by placing the well-plate on ice and removing the supernatant. The cells were washed with 250 μL cold HBSS and the both fractions for each well combined, comprising the amount of unbound radioligand.
# The supernatant was removed, the cells washed with cold HBSS and the respective fractions combined to obtain the amount of surface-bound radioligand.
# The cells were then incubated with 300 μL NaOH (1.00 M in H2O) for at least 30 at r.t. before the supernatant was removed. The well was washed with another 300 μL NaOH and the fractions combined that contain the amount of internalized radioligand.
# The three different fractions were subjected to activity measurement in the γ-counter, measuring the activity of the radionuclide used for the labeling of the peptide under investigation first. […] Data was corrected for non-specific internalization and referred to the specific internalization of the standard ligand
# [4] = unlabeled or cold (natGa/natLu) compound vs 125I-Fc-131, Jurkat cells, read-out: IC50
# Sequence of CXCR4 (P61073 whole entry): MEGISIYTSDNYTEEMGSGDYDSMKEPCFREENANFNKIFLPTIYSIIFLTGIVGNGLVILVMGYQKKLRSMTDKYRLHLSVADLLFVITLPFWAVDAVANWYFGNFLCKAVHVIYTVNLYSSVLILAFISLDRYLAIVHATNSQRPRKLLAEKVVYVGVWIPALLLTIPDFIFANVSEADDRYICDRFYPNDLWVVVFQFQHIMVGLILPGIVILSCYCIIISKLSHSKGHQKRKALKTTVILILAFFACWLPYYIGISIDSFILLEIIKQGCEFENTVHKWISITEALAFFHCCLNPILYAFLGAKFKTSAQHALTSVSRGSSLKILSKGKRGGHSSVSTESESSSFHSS
smiles,measurement,setting,value
C[C@@H](NC(=O)[C@@H](CCCNC(=N)N)NC(=O)[C@@H](CN)NC(=O)CN1CCN(CC(=O)O)CCN(CC(=O)O)CCN(CC(=O)O)CC1)C(=O)NCc1ccc(C(=O)NCCC[C@@H]2C(=O)N[C@@H](CCCNC(=N)N)C(=O)N[C@@H](Cc3ccc4ccccc4c3)C(=O)NCC(=O)N[C@H](Cc3ccc(O)cc3)C(=O)N2C)cc1 [CXCR4-DOTA-1] (cyclo([dY][dNMeOrn]([4Amb-dA-dR-dDap-DOTA])R[2Nal]G)),IC50,[1]; [4],12.1 ± 2.42 nM
C[C@@H](NC(=O)[C@@H](CCCNC(=N)N)NC(=O)[C@@H](CN)NC(=O)CN1CCN(CC(=O)O)CCN(CC(=O)O)CCN(CC(=O)O)CC1)C(=O)NCc1ccc(C(=O)NCCC[C@@H]2C(=O)N[C@@H](CCCNC(=N)N)C(=O)N[C@@H](Cc3ccc4ccccc4c3)C(=O)NCC(=O)N[C@H](Cc3ccc(O)c(I)c3)C(=O)N2C)cc1 [CXCR4-DOTA-2] (cyclo([dTyr(3-I)][dNMeOrn]([4Amb-dA-dR-dDap-DOTA])R[2Nal]G)),IC50,[1],7.03 ± 0.59 nM
CC[C@H](C)[C@@H]([C@@H](CC(=O)N1CCC[C@H]1[C@H](OC)[C@@H](C)C(=O)N[C@H](C)C(O)c1ccccc1)OC)N(C)C(=O)[C@@H](NC(=O)[C@H](C(C)C)N(C)C(=O)OCc1ccc(NC(=O)[C@H](CCCNC(N)=O)NC(=O)[C@@H](NC(=O)CCCCCN2C(=O)CC(SC[C@@H](N)C(=O)NC(CCCNC(=N)N)C(=O)N[C@H](C)C(=O)Nc3ccc(C(=O)NCCC[C@@H]4C(=O)N[C@@H](CCCNC(=N)N)C(=O)N[C@H](Cc5ccc6ccccc6c5)C(=O)NCC(=O)N[C@@H](Cc5ccc(O)cc5)C(=O)N4C)cc3)C2=O)C(C)C)cc1)C(C)C (some centres unmarked) [CXCR4-MMAE-1],IC50,[1],99.8 ± 7.55 nM
C[C@@H](NC(=O)[C@@H](CCCNC(=N)N)NC(=O)[C@@H](CN)NC(=O)CN1CCN(CC(=O)O)CCN(CC(=O)O)CCN(CC(=O)O)CC1)C(=O)Nc1ccc(C(=O)NCCC[C@@H]2C(=O)N[C@@H](CCCNC(=N)N)C(=O)N[C@@H](Cc3ccc4ccccc4c3)C(=O)NCC(=O)N[C@H](Cc3ccc(O)cc3)C(=O)N2C)cc1 [CXCR4-DOTA-3] (cyclo([dY][dNMeOrn]([4Abz-dA-dR-dDap-DOTA])R[2Nal]G)),IC50,[1]; [4],3.16 ± 0.63 nM
C[C@@H](NC(=O)[C@@H](CCCNC(=N)N)NC(=O)[C@@H](CN)NC(=O)CN1CCN(CC(=O)O)CCN(CC(=O)O)CCN(CC(=O)O)CC1)C(=O)Nc1ccc(C(=O)NCCC[C@@H]2C(=O)N[C@@H](CCCNC(=N)N)C(=O)N[C@@H](Cc3ccc4ccccc4c3)C(=O)NCC(=O)N[C@H](Cc3ccc(O)c(I)c3)C(=O)N2C)cc1 [CXCR4-DOTA-4] (cyclo([dTyr(3-I)][dNMeOrn]([4Abz-dA-dR-dDap-DOTA])R[2Nal]G)),IC50,[1]; [4],4.64 ± 0.96 nM
C[C@@H](NC(=O)[C@@H](CCCNC(N)=O)NC(=O)[C@@H](CN)NC(=O)CN1CCN(CC(=O)O)CCN(CC(=O)O)CCN(CC(=O)O)CC1)C(=O)Nc1ccc(C(=O)NCCC[C@@H]2C(=O)N[C@@H](CCCNC(=N)N)C(=O)N[C@@H](Cc3ccc4ccccc4c3)C(=O)NCC(=O)N[C@H](Cc3ccc(O)cc3)C(=O)N2C)cc1 [CXCR4-DOTA-5] (cyclo([dY][dNMeOrn]([4Abz-dA-dCit-dDap-DOTA])R[2Nal]G)),IC50,[1]; [4],21.3 ± 6.64 nM
C[C@@H](NC(=O)[C@@H](CCCNC(=N)N)NC(=O)[C@@H](C)NC(=O)[C@@H](CO)NC(=O)[C@@H](CO)NC(=O)[C@@H](CO)NC(=O)CS)C(=O)Nc1ccc(C(=O)NCCC[C@@H]2C(=O)N[C@@H](CCCNC(=N)N)C(=O)N[C@@H](Cc3ccc4ccccc4c3)C(=O)NCC(=O)N[C@H](Cc3ccc(O)cc3)C(=O)N2C)cc1 [Tc-CXCR4-2] (I: Mercaptoacetyl-[dS][dS][dS][dA][dR][dA][4Abz] / II: cyclo([dY][dNMeOrn]R[2Nal]G); amide I:C-II:2),IC50,[1],32.4 ± 9.9 nM
C[C@@H](NC(=O)[C@@H](CCCNC(N)=O)NC(=O)[C@@H](CN)NC(=O)CN1CCN(CC(=O)O)CCN(CC(=O)O)CCN(CC(=O)O)CC1)C(=O)Nc1ccc(C(=O)NCCC[C@@H]2C(=O)N[C@@H](CCCNC(=N)N)C(=O)N[C@@H](Cc3ccc4ccccc4c3)C(=O)NCC(=O)N[C@H](Cc3ccc(O)cc3)C(=O)N2C)cc1 [CXCR4-DOTA-5 [Lu]] (cyclo([dY][dNMeOrn]([4Abz-dA-dCit-dDap-DOTA])R[2Nal]G)),logD7.4,[2],−3.58 ± 0.08 (8)
same,Internalized in relation to 125I-Fc-131 [%],[3]; 15 min,97.3 ± 8.78%
same,Cell-bound [%],[3]; 15 min,3.47 ± 0.46%
same,Internalized [%],[3]; 15 min,3.52 ± 0.31%
same,Internalized in relation to 125I-Fc-131 [%],[3]; 30 min,151 ± 4.51%
same,Cell-bound [%],[3]; 30 min,4.66 ± 0.45%
same,Internalized [%],[3]; 30 min,5.80 ± 0.14%
same,Internalized in relation to 125I-Fc-131 [%],[3]; 60 min,151 ± 15.9%
same,Cell-bound [%],[3]; 60 min,5.21 ± 0.48%
same,Internalized [%],[3]; 60 min,6.94 ± 0.59%
same,Internalized in relation to 125I-Fc-131 [%],[3]; 120 min,190 ± 13.0%
same,Internalization [% Fc-131] 2 h,[3],190 % Fc-131
same,Cell-bound [%],[3]; 120 min,3.94 ± 0.45%
same,Internalized [%],[3]; 120 min,9.65 ± 0.16%
C[C@@H](NC(=O)[C@@H](CCCNC(=N)N)NC(=O)[C@@H](Cc1ccccc1)NC(=O)[C@@H](CO)NC(=O)[C@@H](CO)NC(=O)[C@@H](CO)NC(=O)CS)C(=O)Nc1ccc(C(=O)NCCC[C@@H]2C(=O)N[C@@H](CCCNC(=N)N)C(=O)N[C@@H](Cc3ccc4ccccc4c3)C(=O)NCC(=O)N[C@H](Cc3ccc(O)cc3)C(=O)N2C)cc1 [Tc-CXCR4-4] (I: Mercaptoacetyl-[dS][dS][dS][dF][dR][dA][4Abz] / II: cyclo([dY][dNMeOrn]R[2Nal]G); amide I:C-II:2),IC50,[1],3490 ± 502 nM
C[C@@H](NC(=O)[C@@H](CCCNC(=N)N)NC(=O)[C@@H](Cc1c[nH]cn1)NC(=O)[C@@H](CNC(=O)c1ccc([Si](F)(C(C)(C)C)C(C)(C)C)cc1)NC(=O)CC[C@H](C(=O)O)N1CCN(CC(=O)O)CCN(CC(=O)O)CCN(CC(=O)O)CC1)C(=O)Nc1ccc(C(=O)NCCC[C@@H]2C(=O)N[C@@H](CCCNC(=N)N)C(=O)N[C@@H](Cc3ccc4ccccc4c3)C(=O)NCC(=O)N[C@H](Cc3ccc(O)cc3)C(=O)N2C)cc1 [CXCR4-SiFA-2 [Ga]],logD7.4,[2],0.39 ± 0.07 (8)
same,Internalized in relation to 125I-Fc-131 [%],[3]; 30 min,500 ± 23.1%
same,Cell-bound [%],[3]; 30 min,0.08 ± 0.23%
same,Internalized [%],[3]; 30 min,12.5 ± 0.46%
same,Internalization [% Fc-131],[3]; 90 min,562 % Fc-131
same,Internalized in relation to 125I-Fc-131 [%],[3]; 90 min,562 ± 33.0%
same,Cell-bound [%],[3]; 90 min,0.43 ± 0.26%
same,Internalized [%],[3]; 90 min,16.5 ± 0.94%
C[C@@H](NC(=O)[C@@H](CCCNC(=N)N)NC(=O)[C@@H](CN)NC(=O)CN1CCN(CC(=O)O)CCN(CC(=O)O)CCN(CC(=O)O)CC1)C(=O)Nc1ccc(C(=O)NCCC[C@@H]2C(=O)N[C@@H](CCCNC(=N)N)C(=O)N[C@@H](Cc3ccc4ccccc4c3)C(=O)NCC(=O)N[C@H](Cc3ccc(O)c(I)c3)C(=O)N2C)cc1 [CXCR4-DOTA-4 [Lu]] (cyclo([dTyr(3-I)][dNMeOrn]([4Abz-dA-dR-dDap-DOTA])R[2Nal]G)),logD7.4,[2],−2.89 ± 0.10 (6)
same,Internalized in relation to 125I-Fc-131 [%],[3]; 15 min,381 ± 16.2%
same,Cell-bound [%],[3]; 15 min,16.0 ± 0.58%
same,Internalized [%],[3]; 15 min,20.7 ± 0.59%
same,Internalized in relation to 125I-Fc-131 [%],[3]; 30 min,588 ± 34.1%
same,Cell-bound [%],[3]; 30 min,24.6 ± 1.38%
same,Internalized [%],[3]; 30 min,30.6 ± 1.56%
same,Internalized in relation to 125I-Fc-131 [%],[3]; 60 min,685 ± 50.1%
same,Cell-bound [%],[3]; 60 min,32.4 ± 0.60%
same,Internalized [%],[3]; 60 min,39.3 ± 0.52%
same,Internalized in relation to 125I-Fc-131 [%],[3]; 120 min,675 ± 47.4%
same,Internalization [% Fc-131] 2 h,[3],675 % Fc-131
same,Cell-bound [%],[3]; 120 min,37.2 ± 2.16%
same,Internalized [%],[3]; 120 min,53.23 ± 1.06%
